Results as given in paper PMC12679610, “Impact of supersaturation on growth, critical radius, and size in neomycin nanoparticle crystallization using anti-solvent and CTAB” (RSC Advances, 2025).

Key:
[1] = Solubility of neomycin sulfate in water-acetone in the presence of CTAB; format: physicochemical
Protocol: In this section, the method for the synthesis of neomycin nanoparticles is explained in detail. First, an exact amount of neomycin powder (purity ≥ 95%) was weighed using a digital analytical balance (accuracy: […]) based on the desired equilibrium concentration. The weighed neomycin was then added to 10 g of double-distilled water (25 °C). To ensure complete dissolution, the mixture was homogenized using a magnetic stirrer at controlled speeds of 300, 350, 400, and 450 rpm for 20 minutes. This range of stirring speeds was selected to investigate the effect of shear force on solution homogeneity. After confirming the homogeneity of the neomycin solution, a predetermined amount of CTAB surfactant with a concentration established from prior studies was added to the beaker. To achieve optimal mixing, the stirring system was activated at a constant speed between 300 and 450 rpm, and the mixing process continued until equilibrium was reached. The solution temperature was continuously monitored using a calibrated digital thermometer (±0.1 °C). A turbidity sensor was installed 2 cm from the crystallizer wall to measure changes in turbidity. Pure acetone (HPLC grade) was added dropwise (0.02 mL per drop) at 5-minute intervals. The first signs of physical change (e.g., localized cloudiness) were recorded as the initial saturation point. Acetone addition continued until stable turbidity (supersaturation) was achieved under isothermal conditions (25 °C). The induction time (the interval between initial saturation and supersaturation), as clearly depicted in Fig. 1, Section C (the induction time segment of steps 1 to 4), was measure using a synchronized turbidimeter and reaction timer data. To ensure reproducibility, the entire process was repeated in four independent trials under controlled conditions (constant temperature, humidity, and lighting).
This study investigated the solubility enhancement of neomycin in the presence of CTAB stabilizer through controlled dynamic shock application. In contrast to the reference study,[29] which utilized PVP at a mixing speed of 300 rpm, the present experimental design involved the addition of 0.3 g neomycin to a 10 g solvent–antisolvent mixture under 350 rpm agitation, incorporating intermittent dynamic shocks consisting of 3-second pulses at 380 rpm. […] This significant improvement stems from synergistic effects between: (1) CTAB's molecular interactions (ionic complexation with neomycin molecules, surface tension reduction, and stable colloidal environment through spherical micelle formation) and (2) dynamic shock-induced phenomena (enhanced antisolvent penetration and uniform stabilizer distribution).[73] […] The findings underscore the critical importance of concurrent optimization of physicochemical parameters in antisolvent crystallization processes for pharmaceutical nanoparticles.[74]
(§1) This study comprehensively investigated the influence of CTAB surfactant on neomycin crystallization. […] The supersaturation (S), as the primary driving force, directly affects the induction time, critical radius, growth rate, solubility, nanoparticle size, and nucleation mechanism.[33] CTAB operates through selective adsorption on crystalline surfaces, substantially influencing the nucleation pathway.[75,76] […] Quantitative data for these parameters are presented in Table 2, with the growth rate (intensity %) and nanoparticle size data being experimentally derived from DLS analysis.

[2] = Critical nucleus radius calculated from classical nucleation theory (eqn S16); format: physicochemical; conditions: CTAB 0.6 g kg^−1, 25 °C
From the text: as §1
As previously explored in relation to supersaturation, growth rate, and nanoparticle size (Fig. 16), the experimental results shown in Fig. 17 further illustrate the critical radius, growth kinetics, and nanoparticle size across varying supersaturation levels.[86] Based on data obtained from DLS analysis and critical radius calculations (eqn S16), it is observed that decreasing supersaturation leads to a significant increase in crystal growth rates, resulting in the formation of larger nanoparticles.[14–16,87] […] This phenomenon follows fundamental crystallization kinetics principles where, at high supersaturation levels, the elevated concentration of solute species leads to the formation of a greater number of primary nuclei.[89] Simultaneously, the distribution of solute molecules among these numerous nuclei results in decreased growth rates for crystals, ultimately producing smaller nanoparticles with a […] size distribution.[86] The role of the CTAB stabilizer in this system is particularly crucial. Through surface adsorption mechanisms, CTAB not only prevents nanoparticle aggregation but also precisely modulates growth kinetics, enabling better control over final particle dimensions.[90] These synergistic effects contribute to the formation of colloidally stable nanoparticles with uniform size distributions. An important observation is the direct correlation between nucleation duration and critical particle size, where extended nucleation times cause the formation of smaller particles.[91] Furthermore, dynamic parameters such as agitation rate and controlled shock pulses serve as effective tools for fine-tuning nanoparticle characteristics.[92]

Molecule `NC[C@@H]1O[C@H](O[C@H]2[C@@H](O)[C@H](O[C@@H]3[C@@H](O)[C@H](N)C[C@H](N)[C@H]3O[C@H]3O[C@H](CN)[C@@H](O)[C@H](O)[C@H]3N)O[C@@H]2CO)[C@H](N)[C@@H](O)[C@@H]1O.O=S(=O)(O)O` [neomycin sulfate] has a Solubility ([1]; 300 rpm, initial neomycin 20 g kg^−1, S 1.18, CTAB 0.6 g kg^−1, 25 °C) of 17 g/kg, a Solubility ([1]; 300 rpm, initial neomycin 20 g kg^−1, S 1.21, CTAB 0.6 g kg^−1, 25 °C) of 16 g/kg and a Solubility ([1]; 300 rpm, initial neomycin 20 g kg^−1, S 1.33, CTAB 0.6 g kg^−1, 25 °C) of 15 g/kg. It also gave a Solubility ([1]; 300 rpm, initial neomycin 20 g kg^−1, S 1.45, CTAB 0.6 g kg^−1, 25 °C) of 13.8 g/kg, a Solubility ([1]; 300 rpm, initial neomycin 20 g kg^−1, S 1.66, CTAB 0.6 g kg^−1, 25 °C) of 12 g/kg and a Solubility ([1]; 350 rpm, initial neomycin 30 g kg^−1, S 1.2, CTAB 0.6 g kg^−1, 25 °C) of 25 g/kg. The Solubility ([1]; 350 rpm, initial neomycin 30 g kg^−1, S 1.25, CTAB 0.6 g kg^−1, 25 °C) was 24 g/kg, the Solubility ([1]; 350 rpm, initial neomycin 30 g kg^−1, S 1.28, CTAB 0.6 g kg^−1, 25 °C) was 23.5 g/kg and the Solubility ([1]; 350 rpm, initial neomycin 30 g kg^−1, S 1.43, CTAB 0.6 g kg^−1, 25 °C) was 21.1 g/kg. For the same molecule, the Solubility ([1]; 400 rpm, initial neomycin 40 g kg^−1, S 1.29, CTAB 0.6 g kg^−1, 25 °C) was 31 g/kg, the Solubility ([1]; 400 rpm, initial neomycin 40 g kg^−1, S 1.379, CTAB 0.6 g kg^−1, 25 °C) was 29 g/kg and the Solubility ([1]; 400 rpm, initial neomycin 40 g kg^−1, S 1.48, CTAB 0.6 g kg^−1, 25 °C) was 27 g/kg. It also gave a Solubility ([1]; 400 rpm, initial neomycin 40 g kg^−1, S 1.66, CTAB 0.6 g kg^−1, 25 °C) of 24 g/kg, a Solubility ([1]; 400 rpm, initial neomycin 40 g kg^−1, S 1.9, CTAB 0.6 g kg^−1, 25 °C) of 21 g/kg and a Solubility ([1]; 450 rpm, initial neomycin 50 g kg^−1, S 1.351, CTAB 0.6 g kg^−1, 25 °C) of 37 g/kg. For the same molecule, the Solubility ([1]; 450 rpm, initial neomycin 50 g kg^−1, S 1.47, CTAB 0.6 g kg^−1, 25 °C) was 34 g/kg, the Solubility ([1]; 450 rpm, initial neomycin 50 g kg^−1, S 1.666, CTAB 0.6 g kg^−1, 25 °C) was 30 g/kg and the Solubility ([1]; 450 rpm, initial neomycin 50 g kg^−1, S 1.785, CTAB 0.6 g kg^−1, 25 °C) was 28 g/kg. The Critical radius ([2]; 300 rpm, initial neomycin 20 g kg^−1, S 1.18) was 1.689 nm, the Critical radius ([2]; 300 rpm, initial neomycin 20 g kg^−1, S 1.21) was 1.467 nm and the Critical radius ([2]; 300 rpm, initial neomycin 20 g kg^−1, S 1.33) was 0.981 nm. The Critical radius ([2]; 300 rpm, initial neomycin 20 g kg^−1, S 1.45) was 0.753 nm, the Critical radius ([2]; 300 rpm, initial neomycin 20 g kg^−1, S 1.66) was 0.552 nm and the Critical radius ([2]; 350 rpm, initial neomycin 30 g kg^−1, S 1.2) was 1.534 nm. For the same molecule, the Critical radius ([2]; 350 rpm, initial neomycin 30 g kg^−1, S 1.25) was 1.254 nm, the Critical radius ([2]; 350 rpm, initial neomycin 30 g kg^−1, S 1.28) was 1.133 nm and the Critical radius ([2]; 350 rpm, initial neomycin 30 g kg^−1, S 1.43) was 0.782 nm. For the same molecule, the Critical radius ([2]; 350 rpm, initial neomycin 30 g kg^−1, S 1.67) was 0.545 nm, the Critical radius ([2]; 400 rpm, initial neomycin 40 g kg^−1, S 1.29) was 1.099 nm and the Critical radius ([2]; 400 rpm, initial neomycin 40 g kg^−1, S 1.379) was 0.957 nm. The Critical radius ([2]; 400 rpm, initial neomycin 40 g kg^−1, S 1.48) was 0.714 nm, the Critical radius ([2]; 400 rpm, initial neomycin 40 g kg^−1, S 1.66) was 0.552 nm and the Critical radius ([2]; 400 rpm, initial neomycin 40 g kg^−1, S 1.9) was 0.436 nm. The Critical radius ([2]; 450 rpm, initial neomycin 50 g kg^−1, S 1.351) was 0.932 nm, the Critical radius ([2]; 450 rpm, initial neomycin 50 g kg^−1, S 1.408) was 0.817 nm and the Critical radius ([2]; 450 rpm, initial neomycin 50 g kg^−1, S 1.47) was 0.726 nm. For the same molecule, the Critical radius ([2]; 450 rpm, initial neomycin 50 g kg^−1, S 1.666) was 0.548 nm and the Critical radius ([2]; 450 rpm, initial neomycin 50 g kg^−1, S 1.785) was 0.483 nm.
